Source: article PMC3433420 (PLoS ONE, 2012)
Residues, ends and D or L forms follow the SMILES beside them.

How the values were obtained:
Assay in all cases: In-house protein microarrays (with or without 5 mM DTT), protein named per line
Type in all cases: binding
SH2 and PTB domains [1] = target: T1, SH2 and PTB domains (Homo sapiens, UniProt P12931); conditions: protein SRC; PM assay replicate # 39331; array fabrication # 39329
T1 construct: thioredoxin; made in house; host or cells: BL21(DE3)pLysS E. coli
Experimental: (§1) 300 pL of purified recombinant proteins and a thioredoxin tag control were spotted at a concentration of ∼40 µM in duplicate onto aldehyde-coated microscope slides (Erie Scientific Company, Portsmouth, NH) using a Nano-Plotter (NP) 2.1/E noncontact microarrayer (GeSiM, Munich, Germany). 16 identical microarrays per slide were printed in a 2×8 (column by row) format with distances of 9 mm between individual arrays; each array consisted of a 14×14 configuration of spots 400 µm apart. Following printing at a constant humidity level of 50%, slides were desiccated overnight and stored at −80°C. For peptide probing, array slides were transferred to 96-well microplates (TeleChem International, Inc., Sunnyvale, CA) and sandwiched with silicone gaskets. Prior to peptide addition, aldehyde sites were quenched with buffer B (20 mM HEPES, 100 mM KCl, 0.1% Tween-20, 5 mM DTT, pH 7.8) containing 1% bovine serum albumin (BSA) (w/v) for one hour at room temperature; moderate agitation was applied in a plate shaker (IKA, Germany) to displace glycerol from the surface area of protein sample spots. […] The arrays were subsequently washed once with 300 µL of buffer B and once with 300 µL of ddH2O. Residual water was removed by centrifugation; slides were stored under desiccation in the dark until analysis.
(§2) Microarray slides were scanned at a resolution of 10 µm using a GenePix 4000B microarray scanner and analyzed using GenePix Pro v6.0 software (Molecular Devices, Sunnyvale, CA). To independently visualize protein spots irrespective of peptide binding, samples were printed simultaneously with 400 nM of Cyanine-5 (Cy5) labeled bovine serum albumin (BSA). […] Following spot layout identification via Cy5 labeled BSA, the mean fluorescence intensity of rhodamine for duplicate protein spots was quantified and normalized by subtracting the corresponding mean fluorescence intensity of thioredoxin. Normalized fluorescence values were then imported into MATLAB and KDs determined as previously described.

SH2 and PTB domains [2] = target: T2, SH2 and PTB domains (Homo sapiens, UniProt P16885); conditions: protein PLCG2-NC, array fabrication # 39329
T2 construct: thioredoxin; made in house; host or cells: BL21(DE3)pLysS E. coli
T2 sequence (P16885 1-1265): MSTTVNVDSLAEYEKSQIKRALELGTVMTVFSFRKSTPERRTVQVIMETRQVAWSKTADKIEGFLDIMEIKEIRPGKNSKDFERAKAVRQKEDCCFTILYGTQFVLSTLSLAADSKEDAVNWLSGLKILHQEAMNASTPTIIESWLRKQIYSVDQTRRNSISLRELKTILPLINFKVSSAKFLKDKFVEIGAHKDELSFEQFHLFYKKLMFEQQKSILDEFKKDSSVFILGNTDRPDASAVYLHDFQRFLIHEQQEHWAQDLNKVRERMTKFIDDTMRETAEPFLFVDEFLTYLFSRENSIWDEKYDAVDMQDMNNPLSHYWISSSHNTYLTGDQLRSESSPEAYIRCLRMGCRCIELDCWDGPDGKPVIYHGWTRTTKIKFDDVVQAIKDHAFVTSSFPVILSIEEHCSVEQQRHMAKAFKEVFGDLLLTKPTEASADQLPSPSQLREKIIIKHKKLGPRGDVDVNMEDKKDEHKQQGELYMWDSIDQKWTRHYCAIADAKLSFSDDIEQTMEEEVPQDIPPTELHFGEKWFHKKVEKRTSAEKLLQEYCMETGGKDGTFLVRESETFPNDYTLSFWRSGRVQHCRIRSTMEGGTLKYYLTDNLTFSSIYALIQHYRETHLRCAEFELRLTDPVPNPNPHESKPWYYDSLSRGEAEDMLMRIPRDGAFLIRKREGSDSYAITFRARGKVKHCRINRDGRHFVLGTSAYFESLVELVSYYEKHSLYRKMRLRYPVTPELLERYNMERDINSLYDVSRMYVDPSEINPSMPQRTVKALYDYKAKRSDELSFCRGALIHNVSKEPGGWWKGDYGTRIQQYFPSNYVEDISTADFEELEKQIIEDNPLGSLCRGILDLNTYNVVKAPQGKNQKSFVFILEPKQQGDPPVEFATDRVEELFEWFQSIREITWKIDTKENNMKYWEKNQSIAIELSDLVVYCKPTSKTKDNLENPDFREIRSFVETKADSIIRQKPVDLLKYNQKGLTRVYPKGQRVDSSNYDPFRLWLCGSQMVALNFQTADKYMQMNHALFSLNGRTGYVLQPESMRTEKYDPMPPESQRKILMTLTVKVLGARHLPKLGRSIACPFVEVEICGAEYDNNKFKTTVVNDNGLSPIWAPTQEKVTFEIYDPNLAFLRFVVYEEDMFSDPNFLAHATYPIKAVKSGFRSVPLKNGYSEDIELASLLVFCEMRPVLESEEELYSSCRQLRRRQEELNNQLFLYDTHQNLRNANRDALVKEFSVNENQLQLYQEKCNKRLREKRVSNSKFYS
Experimental: as §1, §2

SH2 and PTB domains [3] = target: T3, SH2 and PTB domains (Homo sapiens, UniProt P43405); conditions: array fabrication # 39329
T3 construct: thioredoxin; made in house; host or cells: BL21(DE3)pLysS E. coli
Experimental: as §1, §2

T1 sequence (P12931 whole entry, the tested form may be a part): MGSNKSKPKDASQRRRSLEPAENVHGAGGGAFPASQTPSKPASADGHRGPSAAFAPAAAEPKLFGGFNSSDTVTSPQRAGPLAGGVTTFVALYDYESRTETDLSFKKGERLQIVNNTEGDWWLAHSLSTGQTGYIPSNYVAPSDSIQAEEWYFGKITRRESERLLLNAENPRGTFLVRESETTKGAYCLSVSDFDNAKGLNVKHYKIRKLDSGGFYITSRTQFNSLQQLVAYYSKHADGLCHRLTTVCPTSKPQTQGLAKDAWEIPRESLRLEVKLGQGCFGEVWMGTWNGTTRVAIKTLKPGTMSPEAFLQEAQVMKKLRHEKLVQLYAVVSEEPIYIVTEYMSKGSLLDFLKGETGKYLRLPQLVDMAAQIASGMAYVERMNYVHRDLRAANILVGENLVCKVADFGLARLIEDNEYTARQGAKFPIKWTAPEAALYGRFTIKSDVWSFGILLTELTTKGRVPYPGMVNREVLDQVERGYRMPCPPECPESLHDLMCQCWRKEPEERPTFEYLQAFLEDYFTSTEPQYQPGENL

Structure (SMILES): CC(C)C[C@H](NC(=O)[C@@H]1CCCN1)C(=O)N[C@@H](CCC(N)=O)C(=O)N[C@@H](CCCNC(=N)N)C(=O)N[C@@H](Cc1ccc(OP(=O)(O)O)cc1)C(=O)N[C@@H](CO)C(=O)N[C@@H](CCC(=O)O)C(=O)N[C@@H](CC(=O)O)C(=O)N1CCC[C@H]1C(=O)N[C@H](C(=O)N[C@H](C(=O)N1CCC[C@H]1C(=O)N[C@@H](CC(=O)O)C(=O)O)C(C)C)[C@@H](C)O [ErbB2 pY1112] (HELM PEPTIDE1{P.L.Q.R.[O=C([C@H](Cc1ccc(OP(=O)(O)O)cc1)N[*:1])[*:2]].S.E.D.P.T.V.P.D}$$$$V2.0)
- Kd (SH2 and PTB domains [1]): 183.21 µM
- Kd (SH2 and PTB domains [2]; PM assay replicate # 39331): 5.53 µM
- Kd (SH2 and PTB domains [2]; PM assay replicate # 39336): 0.93 µM
- Kd (SH2 and PTB domains [3]; protein SYK-N, PM assay replicate # 39331): 3.62 µM
- Kd (SH2 and PTB domains [3]; protein SYK-N, PM assay replicate # 39336): 14.58 µM
- Kd (SH2 and PTB domains [3]; protein SYK-NC, PM assay replicate # 39331): 0.89 µM
- Kd (SH2 and PTB domains [3]; protein SYK-NC, PM assay replicate # 39336): 0.80 µM
